The subject of one data set is β-trypsin (pancreas). Put plainly: Peptide digestion assay with β-trypsin. Conditions: after 2 h; 500 μM peptide, trypsin 0.075 μM, 50 mM bis-tris propane + 20 mM CaCl2, pH 8, 37 °C, 300 rpm; HPLC (DAD-280 nm); triplicates. The data set is classed as in vitro ADME. How it is done: (§1) Freeze-dried peptides AbuK16, MfeGlyK16, DfeGlyK16, and TfeGlyK16 were dissolved in 100 μL of buffer (50 mM bis-tris propane + 20 mM CaCl2, pH 8) to a final concentration of 500 μM. The peptides were incubated with different proteolytic enzymes (10 μL in buffer): trypsin (0.075 μM), elastase (0.45 μM), proteinase K (0.075 μM), and bromelain (4.5 μM). The experiments were incubated at either 37 °C (trypsin and proteinase K) or 30 °C (elastase and bromelain) in a Thriller thermoshaker-incubator (VWR International, Radnor, PA, USA) with shaking at 300 rpm. Aliquots (15 μL) were taken at fixed time points and quenched with 90 μL of a solution of 30% acetic acid in water containing 133 μM Ac-[4]Abz-Gly-OH as a reference. Peptide degradation was monitored by high-performance liquid chromatography (HPLC) using a Hitachi Primaide UV-HPLC system (VWR/Hitachi, Darmstadt, Germany). A Kinetex RP-C18 ([…], 100 Å, 250 × 4.6 mm, Phenomenex, USA) column and a SecurityGuard Cartridge Kit equipped with a C18 cartridge (4 × 3.0 mm, Phenomenex, USA) as a pre-column was used. The mobile phases employed were 0.1% aqueous […] (TFA) (solvent A) and acetonitrile + 0.1% TFA (solvent B). The solvent conditions for analysis were as follows: 0–5 min, 5% B; 5–20 min, 5–90% B; 20–23 min, 90–100% B; 23–25 min, 100% B; 25–27 min, 100–5% B; and 27–30 min, 5% B. In all cases, the peaks corresponding to each peptide sample (full-length peptides) and the reference sample were integrated and used to determine the amount of the substrate still present in solution. The content of starting material after 5 min was termed as absolute amount for simplicity. All experiments were performed in triplicates, and error bars were obtained as standard deviations of measurements.
(§2) Figure 2 Proteolytic digestion of AbuK16, MfeGlyK16, DfeGlyK16, and TfeGlyK16 by the serine proteases β-trypsin, elastase, proteinase K, and bromelain (pineapple stem) in 50 mM bis-tris propane + 20 mM CaCl2, pH 8, at 37 °C (β-trypsin and proteinase K) or 30 °C (elastase and bromelain). Real-time detection of peptide proteolysis and calculation of remaining peptide amounts were accomplished by HPLC analysis (DAD-280 nm).

For data set [1], the target named is T1, bromelain (pineapple stem) (Ananas comosus, UniProt P14518).
T1 construct: purchased Sigma-Aldrich (Steinheim, Germany); host or cells: pineapple stem
T1 sequence (P14518 1-212): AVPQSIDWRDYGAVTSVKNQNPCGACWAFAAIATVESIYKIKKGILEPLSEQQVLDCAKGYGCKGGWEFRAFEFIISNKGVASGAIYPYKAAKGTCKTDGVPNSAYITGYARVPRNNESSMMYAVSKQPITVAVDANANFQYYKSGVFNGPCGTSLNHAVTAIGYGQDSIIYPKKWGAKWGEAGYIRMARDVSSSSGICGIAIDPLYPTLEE
Kind of data set: Peptide digestion assay with bromelain. The data set is classed as in vitro ADME. Particulars: 500 μM peptide, bromelain 4.5 μM, 50 mM bis-tris propane + 20 mM CaCl2, pH 8, 30 °C, HPLC (DAD-280 nm); for digestion by bromelain: 300 rpm, triplicates. On the procedure:
as §1, §2

The target in another data set is T2, elastase (pancreas) (Sus scrofa, UniProt P00772).
T2 construct: purchased Sigma-Aldrich (Steinheim, Germany); host or cells: pancreas
Put plainly: Peptide digestion assay with elastase. The data set is classed as in vitro ADME. Conditions: after 4 h; 500 μM peptide, elastase 0.45 μM, 50 mM bis-tris propane + 20 mM CaCl2, pH 8, 30 °C, 300 rpm; HPLC (DAD-280 nm); triplicates. On the procedure: as §1, with “The solvent conditions for analysis were as follows: 0–5 min, 5% B; 5–20 min, 5–90% B; 20–23 min, 90–100% B; 23–25 min, 100% B; 25–27 min, 100–5% B; and 27–30 min, 5% B. In all cases, the peaks corresponding to each peptide sample (full-length peptides) and the reference sample were integrated and used to determine the amount of the substrate still present in solution. The content of starting material after 5 min was termed as absolute amount for simplicity. All experiments were performed in triplicates, and error bars were obtained as standard deviations of measurements.” left out

In a further data set the target is T3, proteinase K (Parengyodontium album, UniProt P06873).
T3 construct: purchased Sigma-Aldrich (Steinheim, Germany)
Put plainly: Peptide digestion assay with proteinase K. The class given is in vitro ADME, Tritirachium album. Conditions: 500 μM peptide, proteinase K 0.075 μM, 50 mM bis-tris propane + 20 mM CaCl2, pH 8, 37 °C, HPLC (DAD-280 nm), triplicates; for proteolytic stability against proteinase K: after 4 h, 300 rpm. On the procedure: as §1
Figure 2 Proteolytic digestion of AbuK16, MfeGlyK16, DfeGlyK16, and TfeGlyK16 by the serine proteases β-trypsin, elastase, proteinase K, and bromelain (pineapple stem) in 50 mM bis-tris propane + 20 mM CaCl2, pH 8, at 37 °C (β-trypsin and proteinase K) or 30 °C (elastase and bromelain). […]

Where a SMILES comes first, the peptide text is derived from it. [ ]: non-standard residue; d: D form. Abu(4,4,4-F3) = N[C@@H](CC(F)(F)F)C(=O)O; Abu(4,4-F2) = N[C@@H](CC(F)F)C(=O)O; 4Abz = Nc1ccc(C(=O)O)cc1; Abu = CC[C@H](N)C(=O)O

T3 sequence (P06873 106-384): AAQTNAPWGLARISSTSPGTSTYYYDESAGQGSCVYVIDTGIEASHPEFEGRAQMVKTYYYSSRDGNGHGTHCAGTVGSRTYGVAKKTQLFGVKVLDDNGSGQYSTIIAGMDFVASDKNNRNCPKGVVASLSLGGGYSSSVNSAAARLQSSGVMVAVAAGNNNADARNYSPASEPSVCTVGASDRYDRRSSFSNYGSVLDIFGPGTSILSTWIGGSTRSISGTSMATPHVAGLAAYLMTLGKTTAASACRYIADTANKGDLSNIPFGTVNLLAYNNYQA
T2 sequence (P00772 27-266): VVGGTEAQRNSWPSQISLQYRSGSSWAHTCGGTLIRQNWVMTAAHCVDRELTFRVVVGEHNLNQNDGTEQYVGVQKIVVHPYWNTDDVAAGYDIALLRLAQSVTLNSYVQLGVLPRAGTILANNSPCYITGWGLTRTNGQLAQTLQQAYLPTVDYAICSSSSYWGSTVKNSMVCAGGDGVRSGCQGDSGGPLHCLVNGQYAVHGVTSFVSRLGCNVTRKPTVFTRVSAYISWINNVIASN

In the case of `CC[C@H](NC(C)=O)C(=O)N[C@@H](CCCCN)C(=O)N[C@@H](CC)C(=O)N[C@@H](CCCCN)C(=O)N[C@@H](CC)C(=O)N[C@@H](CCCCN)C(=O)N[C@@H](CC)C(=O)N[C@@H](CCCCN)C(=O)N[C@@H](CC)C(=O)N[C@@H](CCCCN)C(=O)N[C@@H](CC)C(=O)N[C@@H](CCCCN)C(=O)N[C@@H](CC)C(=O)N[C@@H](CCCCN)C(=O)N[C@@H](CC)C(=O)N[C@@H](CCCCN)C(=O)Nc1ccc(C(N)=O)cc1` [AbuK16, Ac-(Abu-Lys)8-[4]Abz-NH2] (Ac-[Abu]K[Abu]K[Abu]K[Abu]K[Abu]K[Abu]K[Abu]K[Abu]K[4Abz]-NH2), the “remaining full-length peptide after digestion by β-trypsin” value in the data set on β-trypsin (pancreas) is given as “comparably higher amounts of peptide were detected”. In addition, the digestion by bromelain result in data set [1] was “digested”.
In the case of `CC(=O)N[C@@H](CC(F)F)C(=O)N[C@@H](CCCCN)C(=O)N[C@@H](CC(F)F)C(=O)N[C@@H](CCCCN)C(=O)N[C@@H](CC(F)F)C(=O)N[C@@H](CCCCN)C(=O)N[C@@H](CC(F)F)C(=O)N[C@@H](CCCCN)C(=O)N[C@@H](CC(F)F)C(=O)N[C@@H](CCCCN)C(=O)N[C@@H](CC(F)F)C(=O)N[C@@H](CCCCN)C(=O)N[C@@H](CC(F)F)C(=O)N[C@@H](CCCCN)C(=O)N[C@@H](CC(F)F)C(=O)N[C@@H](CCCCN)C(=O)Nc1ccc(C(N)=O)cc1` [DfeGlyK16, Ac-(DfeGly-Lys)8-[4]Abz-NH2] (Ac-[Abu(4,4-F2)]K[Abu(4,4-F2)]K[Abu(4,4-F2)]K[Abu(4,4-F2)]K[Abu(4,4-F2)]K[Abu(4,4-F2)]K[Abu(4,4-F2)]K[Abu(4,4-F2)]K[4Abz]-NH2), the “remaining full-length peptide after digestion by β-trypsin” value with β-trypsin (pancreas) is reported as “mostly consumed”. The “remaining full-length peptide after digestion by elastase” value at elastase (pancreas) was “lower amounts of DfeGlyK16 and TfeGlyK16 detected than AbuK16 and MfeGlyK16”. Moreover, the digestion by bromelain entry in data set [1] is reported as “digested”.
In the case of `CC(=O)N[C@@H](CCF)C(=O)N[C@@H](CCCCN)C(=O)N[C@@H](CCF)C(=O)N[C@@H](CCCCN)C(=O)N[C@@H](CCF)C(=O)N[C@@H](CCCCN)C(=O)N[C@@H](CCF)C(=O)N[C@@H](CCCCN)C(=O)N[C@@H](CCF)C(=O)N[C@@H](CCCCN)C(=O)N[C@@H](CCF)C(=O)N[C@@H](CCCCN)C(=O)N[C@@H](CCF)C(=O)N[C@@H](CCCCN)C(=O)N[C@@H](CCF)C(=O)N[C@@H](CCCCN)C(=O)Nc1ccc(C(N)=O)cc1` [MfeGlyK16, Ac-(MfeGly-Lys)8-[4]Abz-NH2], the “remaining full-length peptide after digestion by β-trypsin” value in the data set on β-trypsin (pancreas) is listed as “comparably higher amounts of peptide were detected”. In addition, the “proteolytic stability against proteinase K” value on proteinase K is “higher proteolytic stability of MfeGlyK16 than that for AbuK16 and DfeGlyK16”. Moreover, the digestion by bromelain result in data set [1] was “digested”.
On to `CC(=O)N[C@@H](CC(F)(F)F)C(=O)N[C@@H](CCCCN)C(=O)N[C@@H](CC(F)(F)F)C(=O)N[C@@H](CCCCN)C(=O)N[C@@H](CC(F)(F)F)C(=O)N[C@@H](CCCCN)C(=O)N[C@@H](CC(F)(F)F)C(=O)N[C@@H](CCCCN)C(=O)N[C@@H](CC(F)(F)F)C(=O)N[C@@H](CCCCN)C(=O)N[C@@H](CC(F)(F)F)C(=O)N[C@@H](CCCCN)C(=O)N[C@@H](CC(F)(F)F)C(=O)N[C@@H](CCCCN)C(=O)N[C@@H](CC(F)(F)F)C(=O)N[C@@H](CCCCN)C(=O)Nc1ccc(C(N)=O)cc1` [TfeGlyK16, Ac-(TfeGly-Lys)8-[4]Abz-NH2] (Ac-[Abu(4,4,4-F3)]K[Abu(4,4,4-F3)]K[Abu(4,4,4-F3)]K[Abu(4,4,4-F3)]K[Abu(4,4,4-F3)]K[Abu(4,4,4-F3)]K[Abu(4,4,4-F3)]K[Abu(4,4,4-F3)]K[4Abz]-NH2), for which, in the data set on β-trypsin (pancreas), the “remaining full-length peptide after digestion by β-trypsin” value is recorded as “mostly consumed”. The “remaining full-length peptide after digestion by elastase” value on elastase (pancreas) is “lower amounts of DfeGlyK16 and TfeGlyK16 detected than AbuK16 and MfeGlyK16”. Further, at proteinase K, the “proteolytic stability against proteinase K” value was “pronounced stability”. Besides, the “digestion by proteinase K” value on proteinase K (within 24 h) is “largely digested”. In data set [1], the digestion by bromelain result is “resistant to this protease”. Besides, the “remaining peptide after digestion by bromelain” value in data set [1] (after 3 days incubation) was “noticeable amounts of this peptide were still present”.
